Results taken from patent publication US20230192686A1, “1H-PYRROLO[2,3-B]PYRIDINES AND PREPARATION AND USES THEREOF” (BioSplice Therapeutics, Inc., priority 2021, published 2023).
pEC50: −log10 of the molar value.

What was measured:
[1] = test system: Tau phosphorylation at Thr212 (pThr212); assay: Tau phosphorylation assay, phosphoTau (Thr212) AlphaLISA in HEK293T cells transfected with DYRK1A and MAPT; format: cell-based; conditions: HEK-293T; HEK293T cells transfected with human DYRK1A and MAPT; compound treatment 18-24 hours; read-out: pTau (Thr212) EC50
Description: Representative compounds were screened using the assay procedure for tau phosphorylation activity described below.
HEK293T cells (ATCC, CRL3216) cultured in DMEM (Thermo Fisher Scientific, 10566024) supplemented with 10% FBS (Corning, 35-011-CV) and Penicillin/Streptomycin (Thermo Fisher Scientific, 15140163) were seeded in a 75 cm^2 flask at 8.1×10^6 cells/flask. The HEK293T cells were then transiently transfected with 5 μg DYRK1A (NM_001396) human untagged clone (OriGene, SC314641) and 2.5 μg MAPT (441 a.a. Tau gene) (NM_005910) human untagged clone (OriGene, TP313312) using Lipofectamine 3000 (Thermo Fisher Scientific, L30000015) and incubated for 20-30 hours in a humidified incubator at 37° C. and 5% CO2. Post-incubation, HEK293T cells transfected with the DYRK1A and MAPT expression vectors were harvested and seeded in BioCoat poly-D lysine coated 96-well plates (Corning, 354461) at 3×10^4 cells/well.
The above synthesized compounds were screened using the cell assay procedure to assess decreased Tau phosphorylation at Thr212 (pThr212) described below.
Each compound was dissolved in DMSO (Sigma-Aldrich, D8418-100 mL) as a 10 mM stock. 10 mM stocks were serially diluted 1:3, 10-point dose-response curve and added to the cells with a final concentration ranging from 20 μM to 1.1 nM. Cell were treated with compounds in duplicate and incubated for 18-24 hours in a humidified incubator at 37° C. and 5% CO2.
Following the overnight compound treatment, cells were lysed with 1× Alpha Surefire Ultra Lysis Buffer (Perkin Elmer, ALSU-LB-100ML) complemented with 1× Halt Phosphatase Inhibitor Cocktail (Thermo Fisher Scientific, 78427) and 1× Halt Protease Inhibitor Cocktail (Thermo Fisher Scientific, 78438). Lysates were spun down at 12,000 g for 10 min to remove any cellular debris and 5 μL of lysates were dispensed into a 384-well Opti-Plate (Perkin Elmer, 6007290) for the measurement of Tau phosphorylation in the phosphoTau (Thr212) AlphaLISA assay. Donor antibody, biotinylated HT7Tau (Thermo Fisher Scientific, MN1000B), and acceptor antibody, pThr212Tau (Thermo Fisher Scientific, 44740G) were both added to the cell lysates at a final concentration of 3 nM and incubated for 1 hour at room temperature. Following incubation of the lysates with the donor and acceptor antibodies, anti-rabbit IgG(Fc specific) AlphaLISA acceptor beads (Perkin Elmer, AL104C) were added at a 10 ug/mL final concentration and incubated for 1 hour at room temperature protected from light. Lastly, AlphaScreen streptavidin donor beads (PerkinElmer, 6760002) were added at 40 ug/mL final concentration and incubated for 1 hour at room temperature protected from light. Plates were read at Ex=[…], and Em=615 nm on the EnVision Multilabel Plate Reader (Perkin Elmer) phospho-Tau (Thr212) AlphaLISA signal was used to plot, draw the curve fitting, and determine each compound's EC50 in Prism (GraphPad).

[2] = target: recombinant DYRK1A kinase (Homo sapiens, UniProt Q13627); assay: DYRK1A kinase assay (Ser/Thr 18 peptide Z-lyte FRET); format: biochemical; conditions: DYRK1A kinase activity; 15 μM ATP, 4 μM Ser/Thr peptide 18, one hour at room temperature
In short: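 Recombinant DYRK1A at 0.25 μg/mL was incubated 1 h at room temperature with 15 μM ATP, 4 μM Ser/Thr 18 peptide and compound, in duplicate, 11-point series from 10 μM. Phosphorylation was read by Z-lyte FRET after 1 h protease development, as the coumarin/fluorescein emission ratio converted to % phosphorylation. IC50 by non-linear regression.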

SMILES | pEC50 [1] | pEC50 [2]
c1cn2nc(-c3c[nH]c4nc(C5CC5)ccc34)ccc2n1 [Compound 1508, 6-(6-Cyclopropyl-1H-pyrrolo[2,3-b]pyridin-3-yl)imidazo[1,2-b] pyridazine] | 6.49 | 7.54
CN1CCC(NC(=O)c2cnn3ccc(-c4c[nH]c5nc(-c6ccccc6)ccc45)cc23)CC1 [Compound 2018, N-(1-Methylpiperidin-4-yl)-5-(6-phenyl-1H-pyrrolo[2,3-b]pyridin-3-yl)pyrazolo[1,5-a]pyridine-3-carboxamide] | 8.10 | 8.15
O=C(Nc1ccncc1)c1ccc2c(-c3ccc4ncccc4c3)c[nH]c2n1 [Compound 2054, N-(Pyridin-4-yl)-3-(quinolin-6-yl)-1H-pyrrolo[2,3-b]pyridine-6-carboxamide] | 5.20 | 7.29
Cn1cc(-c2cnn3ccc(-c4c[nH]c5ncccc45)cc23)cn1 [Compound 37, 3-(3-(1-Methyl-1H-pyrazol-4-yl)pyrazolo[1,5-a]pyridin-5-yl)-1H-pyrrolo[2,3-b]pyridine] | 8.22 | 9.00
Cc1ccc2c(-c3ccc4ncccc4c3)c[nH]c2n1 [Compound 1488, 6-(6-Methyl-1H-pyrrolo[2,3-b]pyridin-3-yl)quinoline] | 7.41 | 8.70
O=C1NCc2cc(-c3c[nH]c4nc(C5CC5)ccc34)ccc21 [Compound 1522, 5-(6-Cyclopropyl-1H-pyrrolo[2,3-b]pyridin-3-yl)isoindolin-1-one] | 7.60 | 7.92
CN1CCN(C(=O)c2cnn3ccc(-c4c[nH]c5ncc(Cl)cc45)cc23)CC1 [Compound 215, (5-(5-Chloro-1H-pyrrolo[2,3-b]pyridin-3-yl)pyrazolo[1,5-a]pyridin-3-yl)(4-methylpiperazin-1-yl)methanone] | 6.59 | 7.92
CN1CCC(NC(=O)c2cnn3ccc(-c4c[nH]c5nc(C6CC6)ccc45)cc23)CC1 [Compound 1514, 5-(6-Cyclopropyl-1H-pyrrolo[2,3-b]pyridin-3-yl)-N-(1-methylpiperidin-4-yl)pyrazolo[1,5-a]pyridine-3-carboxamide] | 7.09 | 8.30
CCOc1ccc2c(-c3ccc4ncccc4c3)c[nH]c2n1 [Compound 1782, 6-(6-Ethoxy-1H-pyrrolo[2,3-b]pyridin-3-yl)quinoline] | 6.52 | 7.82
FC(F)Oc1ccc2c(-c3ccc4nccn4c3)c[nH]c2n1 [Compound 1708, 6-(6-(Difluoromethoxy)-1H-pyrrolo[2,3-b]pyridin-3-yl)imidazo[1,2-a] pyridine] | 6.27 | 7.74
c1cncc(-c2cnc3[nH]cc(-c4ccc5ncccc5c4)c3c2)c1 [Compound 1194, 6-(5-(Pyridin-3-yl)-1H-pyrrolo[2,3-b]pyridin-3-yl)quinoline] | 8.70 | –
c1cnc2ccc(-c3c[nH]c4nc(C5CC5)ccc34)cc2c1 [Compound 1530, 6-(6-Cyclopropyl-1H-pyrrolo[2,3-b]pyridin-3-yl)quinoline] | 6.41 | 7.62
CN1CCC(NC(=O)c2cnn3ccc(-c4c[nH]c5nc(C6CCCC6)ccc45)cc23)CC1 [Compound 1598, 5-(6-Cyclopentyl-1H-pyrrolo[2,3-b]pyridin-3-yl)-N-(1-methylpiperidin-4-yl)pyrazolo[1,5-a]pyridine-3-carboxamide] | 6.88 | 8.40
O=C(c1cnn2ccc(-c3c[nH]c4ncccc34)cc12)N1CCC(N2CCOCC2)CC1 [Compound 107, (5-(1H-Pyrrolo[2,3-b]pyridin-3-yl)pyrazolo[1,5-a]pyridin-3-yl)(4-morpholinopiperidin-1-yl)methanone] | 6.40 | 8.10
O=C1NCCc2cc(-c3c[nH]c4nc(C5CC5)ccc34)ccc21 [Compound 1526, 6-(6-Cyclopropyl-1H-pyrrolo[2,3-b]pyridin-3-yl)-3,4-dihydroisoquinolin-1(2H)-one] | 7.14 | 8.00
CN1CCN(c2ccc(NC(=O)c3cnc4[nH]cc(-c5ccc6nccnc6c5)c4c3)cn2)CC1 [Compound 817, N-(6-(4-Methylpiperazin-1-yl)pyridin-3-yl)-3-(quinoxalin-6-yl)-1H-pyrrolo[2,3-b]pyridine-5-carboxamide] | 6.68 | 8.10
O=C1NCCOc2cc(-c3c[nH]c4nc(C5CC5)ccc34)ccc21 [Compound 1529, 8-(6-Cyclopropyl-1H-pyrrolo[2,3-b]pyridin-3-yl)-3,4-dihydrobenzo[f][1,4] oxazepin-5(2H)-one] | 6.38 | 7.55
Cc1nc2ncc(-c3c[nH]c4ncccc34)cc2n1C(C)C [Compound 25, 1-Isopropyl-2-methyl-6-(1H-pyrrolo[2,3-b]pyridin-3-yl)-1H-imidazo[4,5-b]pyridine] | 7.80 | 9.00
CN1CCC(Nc2cnc3ccc(-c4c[nH]c5ncccc45)cc3n2)CC1 [Compound 92, N-(1-Methylpiperidin-4-yl)-7-(1H-pyrrolo[2,3-b]pyridin-3-yl) quinoxalin-2-amine] | 7.51 | 8.30
CN1CCC(NC(=O)c2cnn3ccc(-c4c[nH]c5nc(CC6CCC6)ccc45)cc23)CC1 [Compound 1640, 5-(6-(Cyclobutylmethyl)-1H-pyrrolo[2,3-b]pyridin-3-yl)-N-(1-methylpiperidin-4-yl)pyrazolo[1,5-a]pyridine-3-carboxamide] | 6.70 | 8.22
C[C@@H](NC(=O)c1cnn2ccc(-c3c[nH]c4nc(C5CC5)ccc34)cc12)C(F)(F)F [Compound 1513, (R)-5-(6-Cyclopropyl-1H-pyrrolo[2,3-b]pyridin-3-yl)-N-(1,1,1-trifluoropropan-2-yl)pyrazolo[1,5-a]pyridine-3-carboxamide] | 6.43 | 7.04
c1cn2cc(-c3c[nH]c4nc(C5CC5)ccc34)ccc2n1 [Compound 1498, 6-(6-Cyclopropyl-1H-pyrrolo[2,3-b]pyridin-3-yl)imidazo[1,2-a] pyridine] | 6.36 | 7.33
Cc1nc2c(F)cc(-c3c[nH]c4nc(C5CC5)ccc34)cc2n1C1CCN(C)CC1 [Compound 1502, 6-(6-cyclopropyl-1H-pyrrolo[2,3-b]pyridin-3-yl)-4-fluoro-2-methyl-1-(1-methylpiperidin-4-yl)-1H-benzo[d]imidazole] | 6.03 | 8.30
CCOc1ccc2c(-c3ccc4nccn4c3)c[nH]c2n1 [Compound 1750, 6-(6-Ethoxy-1H-pyrrolo[2,3-b]pyridin-3-yl)imidazo[1,2-a]pyridine] | 6.68 | 8.05
CN1CCN(C(=O)c2cnn3ccc(-c4c[nH]c5ncc(C#N)cc45)cc23)CC1 [Compound 2046, 3-(3-(4-Methylpiperazine-1-carbonyl)pyrazolo[1,5-a]pyridin-5-yl)-1H-pyrrolo[2,3-b]pyridine-5-carbonitrile] | 6.21 | 7.33
